This assay has as its target α4β7 integrin (Homo sapiens (Human), UniProt P13612+P26010). Put plainly: MAdCAM-1/α4β7 integrin binding inhibitory activity evaluation test in the presence of serum (2). The format is cell-based. Particulars: RPMI-8866 cells binding to mouse MAdCAM-1/Fc, same manner as Test (3), read-out: α4β7 Rank of activity with serum added. As to the method: The ability of test substances to inhibit the binding of a human B cell line, RPMI-8866, which is known to express α4β7 integrin, to MAdCAM-1 was measured.
To 96-well microtiter plates, recombinant mouse MAdCAM-1/Fc (R&D systems) solution (1 μg/mL) diluted with buffer A (carbonate buffer, pH 9.6) was added at 50 μL/well, followed by incubation at 4° C. overnight. After washing once with PBS, Block Ace (Snow Brand Milk Products Company, Limited) was added at 150 μL/well, followed by incubation at room temperature for 2 hours. After removal, washing was conducted once with PBS.
100 μL of each test substance diluted with a binding buffer (DMEM containing 40 mM HEPES, 0.2% BSA, and 4 mM MnCl2) to various concentrations and 100 μL of RPMI-8866 cells (2×10^6 cell/mL) were added to plates coated with MAdCAM-1/Fc (5×10^5 cells/well) with human serum being contained at a final concentration of 50%, followed by incubation at 30° C. for 15 minutes to 60 minutes. After the cells were bound to each well, unbound cells were removed by washing with PBS. To the plates, buffer C (PBS containing 1.5% Triton X-100) was added at 50 μL/well to lyse the bound RPMI-8866 cells. To 30 μL of the cell lysate, 30 μL of Substrate Buffer (Promega, CytoTox 96 Non-Radioactive Cytotoxicity Assay) was added, and the reaction was allowed to proceed at room temperature in a dark place for 30 minutes. To each well, 30 μL of Stop Solution (Promega, CytoTox 96 Non-Radioactive Cytotoxicity Assay) was added, and the absorbance at 490 nm was measured by using a plate reader. Here, by the obtained absorbance, the activity of the lactate dehydrogenase (LDH) dissolved into the supernatant of each well was detected. In other words, the absorbance was proportional to the number of the RPMI-8866 cells bound to MAdCAM-1 and remaining on the plate. The test was duplicated. The binding ratios of the cells at various concentrations were determined, with the absorbance of a well containing no test substance taken as 100%. Then, the concentration IC50, at which 50% binding inhibition was achieved, was calculated.
The MAdCAM-1/α4β7 integrin binding inhibitory activity in the presence of serum was measured in the same manner as in Test (3) described above. […] The VCAM-1/α4β1 integrin binding inhibitory activity evaluation test and the MAdCAM-1/α4β7 integrin binding inhibitory activity evaluation test were carried out according to the methods described in Tests (1) and (2) described above.

Chain of α4β7 integrin (P13612 34-1032): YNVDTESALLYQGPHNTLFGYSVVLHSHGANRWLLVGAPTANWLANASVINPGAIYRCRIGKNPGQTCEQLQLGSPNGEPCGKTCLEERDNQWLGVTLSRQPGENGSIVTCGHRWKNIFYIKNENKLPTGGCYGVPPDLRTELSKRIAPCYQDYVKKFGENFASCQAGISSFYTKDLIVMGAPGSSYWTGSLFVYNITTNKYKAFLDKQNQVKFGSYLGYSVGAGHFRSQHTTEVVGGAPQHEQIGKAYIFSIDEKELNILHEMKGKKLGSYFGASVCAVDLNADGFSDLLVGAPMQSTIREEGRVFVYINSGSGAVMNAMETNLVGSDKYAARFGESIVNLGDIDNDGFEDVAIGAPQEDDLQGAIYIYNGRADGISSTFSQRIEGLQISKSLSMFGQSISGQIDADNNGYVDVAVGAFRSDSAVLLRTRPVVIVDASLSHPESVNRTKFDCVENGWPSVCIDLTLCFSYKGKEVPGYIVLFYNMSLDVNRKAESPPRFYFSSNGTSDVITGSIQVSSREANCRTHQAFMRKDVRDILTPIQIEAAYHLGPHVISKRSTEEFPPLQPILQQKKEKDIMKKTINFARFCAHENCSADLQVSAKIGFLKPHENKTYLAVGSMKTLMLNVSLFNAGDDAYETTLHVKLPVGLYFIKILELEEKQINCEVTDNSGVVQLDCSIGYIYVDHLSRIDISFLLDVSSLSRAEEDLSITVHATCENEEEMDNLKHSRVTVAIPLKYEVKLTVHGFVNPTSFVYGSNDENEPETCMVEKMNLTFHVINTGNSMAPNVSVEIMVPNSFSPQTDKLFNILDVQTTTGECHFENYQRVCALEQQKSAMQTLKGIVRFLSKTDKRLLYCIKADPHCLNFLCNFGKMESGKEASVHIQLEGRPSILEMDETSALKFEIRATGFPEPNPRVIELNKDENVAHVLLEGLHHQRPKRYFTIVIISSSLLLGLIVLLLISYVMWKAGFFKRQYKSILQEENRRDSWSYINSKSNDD
Chain of α4β7 integrin (P26010 20-798): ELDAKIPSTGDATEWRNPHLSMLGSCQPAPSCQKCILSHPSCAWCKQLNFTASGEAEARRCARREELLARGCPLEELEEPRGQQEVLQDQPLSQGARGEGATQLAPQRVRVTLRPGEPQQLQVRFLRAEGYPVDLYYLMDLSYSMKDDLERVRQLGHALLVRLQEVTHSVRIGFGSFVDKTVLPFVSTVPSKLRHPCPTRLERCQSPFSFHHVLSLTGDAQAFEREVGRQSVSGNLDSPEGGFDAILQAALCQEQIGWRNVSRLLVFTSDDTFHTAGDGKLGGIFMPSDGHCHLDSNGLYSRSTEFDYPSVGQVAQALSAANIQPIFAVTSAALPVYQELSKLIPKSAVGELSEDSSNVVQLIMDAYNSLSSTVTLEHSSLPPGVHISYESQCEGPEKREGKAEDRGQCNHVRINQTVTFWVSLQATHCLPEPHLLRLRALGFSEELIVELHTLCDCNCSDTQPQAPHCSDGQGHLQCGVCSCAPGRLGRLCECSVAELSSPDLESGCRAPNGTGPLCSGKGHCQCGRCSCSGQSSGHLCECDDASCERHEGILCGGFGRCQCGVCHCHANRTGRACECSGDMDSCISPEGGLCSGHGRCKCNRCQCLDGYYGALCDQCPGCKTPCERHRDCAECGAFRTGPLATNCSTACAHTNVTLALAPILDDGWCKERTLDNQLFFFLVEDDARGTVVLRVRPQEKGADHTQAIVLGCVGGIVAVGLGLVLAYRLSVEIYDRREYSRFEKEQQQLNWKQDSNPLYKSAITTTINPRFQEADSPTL

`Cn1c(=O)n(-c2ccc(C[C@H](NC(=O)c3ncc(NS(=O)(=O)c4ccc(-c5ncccn5)cn4)cc3F)C(=O)O)cc2)c(=O)c2ccncc21` [Example 154, N-[(3-Fluoro-5-{[(5-pyrimidin-2-yl-pyridin-2-yl)sulfonyl]amino}pyridin-2-yl)carbonyl]-4-(1-methyl-2,4-dioxo-1,4-dihydropyrido[3,4-d]pyrimidin-3(2H)-yl)-L-phenylalanine]: the IC50 was in the range of 0.01 to 0.05 µM.

With `CCNC(=O)c1ccc(S(=O)(=O)Nc2cc(F)c(C(=O)N[C@@H](Cc3ccc(-n4c(=O)cc(C)n(C)c4=O)cc3)C(=O)O)c(F)c2)cc1` [Example 155, 4-(3,4-Dimethyl-2,6-dioxo-3,6-dihydropyrimidin-1(2H)-yl)-N-{4-[({4-[(ethylamino)carbonyl]phenyl}sulfonyl)amino]-2,6-difluorobenzoyl}-L-phenylalanine], the IC50 lay within 0.01 to 0.05 µM.

For `CCNC(=O)c1ccc(S(=O)(=O)Nc2cc(F)c(C(=O)N[C@@H](Cc3ccc(-n4c(=O)cc(C(C)C)n(C)c4=O)cc3)C(=O)O)c(F)c2)cc1` [Example 156, N-{4-[({4-[(Ethylamino)carbonyl]phenyl}sulfonyl)amino]-2,6-difluorobenzoyl}-4-(4-isopropyl-3-methyl-2,6-dioxo-3,6-dihydropyrimidin-1(2H)-yl)-L-phenylalanine], the IC50 fell in the range of 0.01 to 0.05 µM.

For the molecule `Cn1ccc(=O)n(-c2ccc(C[C@H](NC(=O)c3c(F)cc(NS(=O)(=O)c4ccc(C(=O)NCC5CC5)cc4)cc3F)C(=O)O)cc2)c1=O` [Example 157, N-(4-{[(4-{[(Cyclopropylmethyl)amino]carbonyl}phenyl)sulfonyl]amino}-2,6-difluorobenzoyl)-4-(3-methyl-2,6-dioxo-3,6-dihydropyrimidin-1(2H)-yl)-L-phenylalanine], the IC50 is 0.01 to 0.05 µM.

Consider `Cc1cc(C(=O)NC(C)(C)C)ccc1S(=O)(=O)Nc1cc(F)c(C(=O)N[C@@H](Cc2ccc(-n3c(=O)ccn(C)c3=O)cc2)C(=O)O)c(F)c1` [Example 158, N-{4-[({4-[(tert-Butylamino)carbonyl]-2-methylphenyl}sulfonyl)amino]-2,6-difluorobenzoyl}-4-(3-methyl-2,6-dioxo-3,6-dihydropyrimidin-1(2H)-yl)-L-phenylalanine], for which the IC50 was at most 0.01 µM.

Consider `Cn1ccc(=O)n(-c2ccc(C[C@H](NC(=O)c3c(F)cc(NS(=O)(=O)c4ccc(-c5ncccn5)cn4)cc3F)C(=O)O)nc2)c1=O` [Example 159, N-(2,6-Difluoro-4-{[(5-pyrimidin-2-yl-pyridin-2-yl)sulfonyl]amino}benzoyl)-3-[5-(3-methyl-2,6-dioxo-3,6-dihydropyrimidin-1(2H)-yl)pyridin-2-yl]-L-alanine], for which the IC50 is 0.01 to 0.05 µM.

Consider `Cn1ccc(=O)n(-c2ccc(C[C@H](NC(=O)c3c(F)cc(NS(=O)(=O)c4ccc(-n5cccc5)cn4)cc3F)C(=O)O)cc2)c1=O` [Example 162, N-[2,6-Difluoro-4-({[5-(1H-pyrrol-1-yl)pyridin-2-yl]sulfonyl}amino)benzoyl]-4-(3-methyl-2,6-dioxo-3,6-dihydropyrimidin-1(2H)-yl)-L-phenylalanine], for which the IC50 lay within 0.01 to 0.05 µM.

Consider `Cn1c(=O)n(-c2ccc(C[C@H](NC(=O)c3ccc(NS(=O)(=O)c4ccc(-c5cncnc5)cn4)cc3F)C(=O)O)cc2)c(=O)c2ccncc21` [Example 163, N-(2-Fluoro-4-{[(5-pyrimidin-5-yl-pyridin-2-yl)sulfonyl]amino}benzoyl)-4-(1-methyl-2,4-dioxo-1,4-dihydropyrido[3,4-d]pyrimidin-3(2H)-yl)-L-phenylalanine], for which the IC50 lay within 0.01 to 0.05 µM.

On to `CCNC(=O)c1ccc(S(=O)(=O)Nc2cc(F)c(C(=O)N[C@@H](Cc3ccc(-n4c(=O)ccn(C)c4=O)cc3)C(=O)O)c(F)c2)cn1` [Example 164, N-{4-[({6-[(Ethylamino)carbonyl]pyridin-3-yl}sulfonyl)amino]-2,6-difluorobenzoyl}-4-(3-methyl-2,6-dioxo-3,6-dihydropyrimidin-1(2H)-yl)-L-phenylalanine], for which the IC50 lay in the range of 0.01 to 0.05 µM.

Consider `Cn1ccc(=O)n(-c2ccc(C[C@H](NC(=O)c3c(F)cc(NS(=O)(=O)c4ccc(C(=O)NC5CCCC5)cc4)cc3F)C(=O)O)cc2)c1=O` [Example 165, N-{4-[({4-[(Cyclopentylamino)carbonyl]phenyl}sulfonyl)amino]-2,6-difluorobenzoyl}-4-(3-methyl-2,6-dioxo-3,6-dihydropyrimidin-1(2H)-yl)-L-phenylalanine], for which the IC50 is at most 0.01 µM.

As to `Cn1c(=O)n(-c2ccc(C[C@H](NC(=O)c3c(F)cc(NS(=O)(=O)c4ccc(C(=O)NC5CCCC5)cc4)cc3F)C(=O)O)cc2)c(=O)c2ccncc21` [Example 166, N-{4-[({4-[(Cyclopentylamino)carbonyl]phenyl}sulfonyl)amino]-2,6-difluorobenzoyl}-4-(1-methyl-2,4-dioxo-1,4-dihydropyrido[3,4-d]pyrimidin-3(2H)-yl)-L-phenylalanine], the IC50 lay in the range of 0.01 to 0.05 µM.

With `Cn1ccc(=O)n(-c2ccc(C[C@H](NC(=O)c3c(F)cc(NS(=O)(=O)c4ccc(C(=O)NC(C)(C)C)cc4)cc3F)C(=O)O)cc2)c1=O` [Example 167, N-{4-[({4-[(tert-Butylamino)carbonyl]phenyl}sulfonyl)amino]-2,6-difluorobenzoyl}-4-(3-methyl-2,6-dioxo-3,6-dihydropyrimidin-1(2H)-yl)-L-phenylalanine], the IC50 is at most 0.01 µM.

For the molecule `Cn1c(=O)n(-c2ccc(C[C@H](NC(=O)c3c(F)cc(NS(=O)(=O)c4ccc(C(=O)NC(C)(C)C)cc4)cc3F)C(=O)O)cc2)c(=O)c2ccncc21` [Example 168, N-{4-[({4-[(tert-Butylamino)carbonyl]phenyl}sulfonyl)amino]-2,6-difluorobenzoyl}-4-(1-methyl-2,4-dioxo-1,4-dihydropyrido[3,4-d]pyrimidin-3(2H)-yl)-L-phenylalanine], the IC50 is at most 0.01 µM.

For the molecule `Cn1ccc(=O)n(-c2ccc(C[C@H](NC(=O)c3c(F)cc(NS(=O)(=O)c4ccc(C(=O)NC5CCCCC5)cc4)cc3F)C(=O)O)cc2)c1=O` [Example 169, N-{4-[({4-[(Cyclohexylamino)carbonyl]phenyl}sulfonyl)amino]-2,6-difluorobenzoyl}-4-(3-methyl-2,6-dioxo-3,6-dihydropyrimidin-1(2H)-yl)-L-phenylalanine], the IC50 fell in the range of 0.01 to 0.05 µM.

In the case of `CCC(CC)NC(=O)c1ccc(S(=O)(=O)Nc2cc(F)c(C(=O)N[C@@H](Cc3ccc(-n4c(=O)ccn(C)c4=O)cc3)C(=O)O)c(F)c2)cc1` [Example 170, N-(4-{[(4-{[(1-Ethylpropyl)amino]carbonyl}phenyl)sulfonyl]amino}-2,6-difluorobenzoyl)-4-(3-methyl-2,6-dioxo-3,6-dihydropyrimidin-1(2H)-yl)-L-phenylalanine], the IC50 is at most 0.01 µM.

In the case of `Cn1ccc(=O)n(-c2ccc(C[C@H](NC(=O)c3c(F)cc(NS(=O)(=O)c4ccncc4)cc3F)C(=O)O)cc2)c1=O` [Example 171, N-{2,6-Difluoro-4-[(pyridin-4-yl-sulfonyl)amino]benzoyl}-4-(3-methyl-2,6-dioxo-3,6-dihydropyrimidin-1 (2H)-yl)-L-phenylalanine], the IC50 lay in the range of 0.01 to 0.05 µM.

Regarding `Cn1ccc(=O)n(-c2ccc(C[C@H](NC(=O)c3c(F)cc(NS(=O)(=O)c4ccc(C(=O)NCC5CCOCC5)cc4)cc3F)C(=O)O)cc2)c1=O` [Example 172, N-(2,6-Difluoro-4-{[(4-{[(tetrahydro-2H-pyran-4-yl-methyl)amino]carbonyl}phenyl)sulfonyl]amino}benzoyl)-4-(3-methyl-2,6-dioxo-3,6-dihydropyrimidin-1(2H)-yl)-L-phenylalanine], the IC50 was at most 0.01 µM.

Consider `Cn1ccc(=O)n(-c2ccc(C[C@H](NC(=O)c3c(F)cc(NS(=O)(=O)c4ccc(C(=O)NC(C)(C)C)nc4)cc3F)C(=O)O)cc2)c1=O` [Example 173, N-{4-[({6-[(tert-Butylamino)carbonyl]pyridin-3-yl}sulfonyl)amino]-2,6-difluorobenzoyl}-4-(3-methyl-2,6-dioxo-3,6-dihydropyrimidin-1(2H)-yl)-L-phenylalanine], for which the IC50 was at most 0.01 µM.

Regarding `Cn1ccc(=O)n(-c2ccc(C[C@H](NC(=O)c3c(F)cc(NS(=O)(=O)c4ccc(C(=O)C5CC5)cc4)cc3F)C(=O)O)cc2)c1=O` [Example 174, N-[4-({[4-(Cyclopropylcarbonyl)phenyl]sulfonyl}amino)-2,6-difluorobenzoyl]-4-(3-methyl-2,6-dioxo-3,6-dihydropyrimidin-1(2H)-yl)-L-phenylalanine], the IC50 is 0.01 to 0.05 µM.
